pIC50: −log10 of the molar value.

This test has as its target T1, His tagged full-length PTP1B protein (Homo sapiens, UniProt P18031).
T1 construct: made in house
T1 sequence (P18031 with tags, fused parts or gaps): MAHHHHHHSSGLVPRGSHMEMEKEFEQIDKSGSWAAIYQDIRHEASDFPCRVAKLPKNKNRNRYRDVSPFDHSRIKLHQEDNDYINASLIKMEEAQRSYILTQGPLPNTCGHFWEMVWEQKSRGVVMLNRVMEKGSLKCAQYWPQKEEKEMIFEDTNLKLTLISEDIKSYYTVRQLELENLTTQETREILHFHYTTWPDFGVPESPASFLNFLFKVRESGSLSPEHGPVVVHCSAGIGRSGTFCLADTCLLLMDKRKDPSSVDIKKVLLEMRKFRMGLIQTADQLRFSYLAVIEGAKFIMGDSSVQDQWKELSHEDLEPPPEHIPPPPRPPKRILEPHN
The test can be described thus: Mobility Shift Assay (MSA) used to determine potency of PTP1B inhibitors. The format is biochemical. The following applies: Table 2. The method, then: The enzymatic assay used to determine activity is a mobility shift assay using a LabChip EZ Reader by Caliper Life Sciences. The enzymatic reaction was carried out in assay buffer (50 mM HEPES pH 7.5, 1 mM EGTA, 10 mM EDTA, 0.01% Tween® 20, and 2 mM DTT). […] The enzyme (at 0.5 nM) was incubated with compound for 10 minutes at room temperature. […] The % inhibition was then used to calculate the IC50 values.
With `CC(C)CCNc1ccc2c(F)c(O)c(N3CC(=O)NS3(=O)=O)c(F)c2c1` [Compound 148, 5-{1,4-difluoro-3-hydroxy-7-[(3-methylbutyl)amino]naphthalen-2-yl}-1λ^6,2,5-thiadiazolidine-1,1,3-trione], the pIC50 was less than 7.00.
For `C[C@@H](O)CCOc1ccc2cc(O)c(N3CC(=O)NS3(=O)=O)c(F)c2c1` [Compound 149, 5-{1-fluoro-3-hydroxy-7-[(3R)-3-hydroxybutoxy]naphthalen-2-yl}-1λ^6,2,5-thiadiazolidine-1,1,3-trione], the pIC50 is 8.00 to 9.00.
With `C[C@@H](O)CCCc1ccc2cc(O)c(N3CC(=O)NS3(=O)=O)c(F)c2c1` [Compound 151, 5-{1-fluoro-3-hydroxy-7-[(4R)-4-hydroxypentyl]naphthalen-2-yl}-1λ^6,2,5-thiadiazolidine-1,1,3-trione], the pIC50 is 8.00 to 9.00.
As for `C[C@H](O)CCCc1ccc2cc(O)c(N3CC(=O)NS3(=O)=O)c(F)c2c1` [Compound 153, 5-{1-fluoro-3-hydroxy-7-[(4S)-4-hydroxypentyl]naphthalen-2-yl}-1λ^6,2,5-thiadiazolidine-1,1,3-trione], the figure is 8.00 to 9.00.
As for `CCC(=O)CCOc1ccc2cc(O)c(N3CC(=O)NS3(=O)=O)c(F)c2c1` [Compound 155, 5-{1-fluoro-3-hydroxy-7-[(3-oxopentyl)oxy]naphthalen-2-yl}-1λ^6,2,5-thiadiazolidine-1,1,3-trione], the figure is 8.00 to 9.00; as for `O=C1CN(c2c(O)cc3ccc(OCCCC(F)(F)F)cc3c2F)S(=O)(=O)N1` [Compound 158, 5-[1-fluoro-3-hydroxy-7-(4,4,4-trifluorobutoxy)naphthalen-2-yl]-1λ^6,2,5-thiadiazolidine-1,1,3-trione], 8.00 to 9.00; as for `N#CC1(CCOc2ccc3cc(O)c(N4CC(=O)NS4(=O)=O)c(F)c3c2)CC1` [Compound 159, 1-(2-{[8-fluoro-6-hydroxy-7-(1,1,4-trioxo-1λ^6,2,5-thiadiazolidin-2-yl)naphthalen-2-yl]oxy}ethyl)cyclopropane-1-carbonitrile], 8.00 to 9.00.
The result for `COCC1(CCOc2ccc3cc(O)c(N4CC(=O)NS4(=O)=O)c(F)c3c2)CC1` [Compound 160, 5-(1-fluoro-3-hydroxy-7-{2-[1-(methoxymethyl)cyclopropyl]ethoxy}naphthalen-2-yl)-1λ^6,2,5-thiadiazolidine-1,1,3-trione] reads 8.00 to 9.00; that for `O=C1CN(c2c(O)cc3ccc(CNCC4CC4)cc3c2F)S(=O)(=O)N1` [Compound 161, 5-(7-{[(cyclopropylmethyl)amino]methyl}-1-fluoro-3-hydroxynaphthalen-2-yl)-1λ^6,2,5-thiadiazolidine-1,1,3-trione], 7.00 to 8.00.
For the compound `CNCC(C)(C)CCOc1ccc2cc(O)c(N3CC(=O)NS3(=O)=O)c(F)c2c1` [Compound 163, 5-{7-[3,3-dimethyl-4-(methylamino)butoxy]-1-fluoro-3-hydroxynaphthalen-2-yl}-1λ^6,2,5-thiadiazolidine-1,1,3-trione], the pIC50 is less than 7.00.
As to `O=C1CN(c2c(O)cc3ccc(NCCc4ccccc4)cc3c2F)S(=O)(=O)N1` [Compound 164, 5-{1-fluoro-3-hydroxy-7-[(2-phenylethyl)amino]naphthalen-2-yl}-1λ^6,2,5-thiadiazolidine-1,1,3-trione], the pIC50 is less than 7.00.
In the case of `CC(C)(N)CCOc1ccc2cc(O)c(N3CC(=O)NS3(=O)=O)c(F)c2c1` [Compound 165, 5-[7-(3-amino-3-methylbutoxy)-1-fluoro-3-hydroxynaphthalen-2-yl]-1λ^6,2,5-thiadiazolidine-1,1,3-trione], the negative-log IC50 (pIC50) is 8.00 to 9.00.
As for `O=C1CN(c2c(O)cc3ccc(NCCCC(F)(F)F)cc3c2F)S(=O)(=O)N1` [Compound 166, 5-{1-fluoro-3-hydroxy-7-[(4,4,4-trifluorobutyl)amino]naphthalen-2-yl}-1λ^6,2,5-thiadiazolidine-1,1,3-trione], the pIC50 is less than 7.00.
On to `O=C1CN(c2c(O)cc3ccc(C(F)F)cc3c2F)S(=O)(=O)N1` [Compound 167, 5-[7-(difluoromethyl)-1-fluoro-3-hydroxynaphthalen-2-yl]-1λ^6,2,5-thiadiazolidine-1,1,3-trione], for which the pIC50 was less than 7.00.
With `O=C1CN(c2c(O)cc3ccc(NCCC(F)(F)F)cc3c2F)S(=O)(=O)N1` [Compound 169, 5-{1-fluoro-3-hydroxy-7-[(3,3,3-trifluoropropyl)amino]naphthalen-2-yl}-1λ^6,2,5-thiadiazolidine-1,1,3-trione], the pIC50 was 7.00 to 8.00.
As for `COC(C)(C)CCOc1ccc2cc(O)c(N3CC(=O)NS3(=O)=O)c(F)c2c1` [Compound 170, 5-[1-fluoro-3-hydroxy-7-(3-methoxy-3-methylbutoxy)naphthalen-2-yl]-1λ^6,2,5-thiadiazolidine-1,1,3-trione], the figure is 8.00 to 9.00.
The result for `CC(C)OCCNc1ccc2cc(O)c(N3CC(=O)NS3(=O)=O)c(F)c2c1` [Compound 172, 5-[1-fluoro-3-hydroxy-7-({2-[(propan-2-yl)oxy]ethyl}amino)naphthalen-2-yl]-1λ^6,2,5-thiadiazolidine-1,1,3-trione] reads less than 7.00; that for `N#CCCCNc1ccc2cc(O)c(N3CC(=O)NS3(=O)=O)c(F)c2c1` [Compound 174, 4-{[8-fluoro-6-hydroxy-7-(1,1,4-trioxo-1λ^6,2,5-thiadiazolidin-2-yl)naphthalen-2-yl]amino}butanenitrile], less than 7.00.
For the compound `O=C1CN(c2c(O)cc3ccc(CCO)cc3c2F)S(=O)(=O)N1` [Compound 175, 5-[1-fluoro-3-hydroxy-7-(2-hydroxyethyl)naphthalen-2-yl]-1λ^6,2,5-thiadiazolidine-1,1,3-trione], the pIC50 was 7.00 to 8.00.
The result for `CC(C)(CN)CCOc1ccc2cc(O)c(N3CC(=O)NS3(=O)=O)c(F)c2c1` [Compound 176, 5-[7-(4-amino-3,3-dimethylbutoxy)-1-fluoro-3-hydroxynaphthalen-2-yl]-1λ^6,2,5-thiadiazolidine-1,1,3-trione] reads 8.00 to 9.00; that for `O=C1CN(c2c(O)cc3ccc(NCCN4CCC4)cc3c2F)S(=O)(=O)N1` [Compound 177, 5-(7-{[2-(azetidin-1-yl)ethyl]amino}-1-fluoro-3-hydroxynaphthalen-2-yl)-1λ^6,2,5-thiadiazolidine-1,1,3-trione], less than 7.00; that for `O=C1CN(c2c(O)cc3ccc(OC4CN(S(=O)(=O)C5CC5)C4)cc3c2F)S(=O)(=O)N1` [Compound 178, 5-(7-{[1-(cyclopropanesulfonyl)azetidin-3-yl]oxy}-1-fluoro-3-hydroxynaphthalen-2-yl)-1λ^6,2,5-thiadiazolidine-1,1,3-trione], 7.00 to 8.00.
As for `COCCNc1ccc2cc(O)c(N3CC(=O)NS3(=O)=O)c(F)c2c1` [Compound 179, 5-{1-fluoro-3-hydroxy-7-[(2-methoxyethyl)amino]naphthalen-2-yl}-1λ^6,2,5-thiadiazolidine-1,1,3-trione], the figure is less than 7.00; as for `O=C1CN(c2c(O)cc3ccc(OCCC(F)(F)F)cc3c2F)S(=O)(=O)N1` [Compound 180, 5-[1-fluoro-3-hydroxy-7-(3,3,3-trifluoropropoxy)naphthalen-2-yl]-1λ^6,2,5-thiadiazolidine-1,1,3-trione], 7.00 to 8.00.
The result for `N#CC1(CNc2ccc3cc(O)c(N4CC(=O)NS4(=O)=O)c(F)c3c2)CC1` [Compound 181, 1-({[8-fluoro-6-hydroxy-7-(1,1,4-trioxo-1λ^6,2,5-thiadiazolidin-2-yl)naphthalen-2-yl]amino}methyl)cyclopropane-1-carbonitrile] reads 8.00 to 9.00; that for `O=C1CN(c2c(O)cc3ccc(OCCCn4cccn4)cc3c2F)S(=O)(=O)N1` [Compound 183, 5-{1-fluoro-3-hydroxy-7-[3-(1H-pyrazol-1-yl)propoxy]naphthalen-2-yl}-1λ^6,2,5-thiadiazolidine-1,1,3-trione], 8.00 to 9.00.
On to `Nc1ccc(CS(=O)(=O)N2CC=C(c3ccc4cc(O)c(N5CC(=O)NS5(=O)=O)c(F)c4c3)C2)cc1` [Compound 184, 5-(7-{1-[(4-aminophenyl)methanesulfonyl]-2,5-dihydro-1H-pyrrol-3-yl}-1-fluoro-3-hydroxynaphthalen-2-yl)-1λ^6,2,5-thiadiazolidine-1,1,3-trione], for which the pIC50 is 8.00 to 9.00.
Consider `O=C1CN(c2c(O)cc3ccc(CO)cc3c2F)S(=O)(=O)N1` [Compound 185, 5-[1-fluoro-3-hydroxy-7-(hydroxymethyl)naphthalen-2-yl]-1λ^6,2,5-thiadiazolidine-1,1,3-trione], for which the pIC50 is 7.00 to 8.00.
As for `O=C1CN(c2c(O)cc3ccc(OCCn4cccn4)cc3c2F)S(=O)(=O)N1` [Compound 188, 5-{1-fluoro-3-hydroxy-7-[2-(1H-pyrazol-1-yl)ethoxy]naphthalen-2-yl}-1λ^6,2,5-thiadiazolidine-1,1,3-trione], the negative-log IC50 (pIC50) is 8.00 to 9.00.
Consider `CC1(CCOc2ccc3cc(O)c(N4CC(=O)NS4(=O)=O)c(F)c3c2)CC1` [Compound 193, 5-{1-fluoro-3-hydroxy-7-[2-(1-methylcyclopropyl)ethoxy]naphthalen-2-yl}-1λ^6,2,5-thiadiazolidine-1,1,3-trione], for which the pIC50 is 7.00 to 8.00.
The result for `Nc1cccc(CS(=O)(=O)N2CC=C(c3ccc4cc(O)c(N5CC(=O)NS5(=O)=O)c(F)c4c3)C2)c1` [Compound 194, 5-(7-{1-[(3-aminophenyl)methanesulfonyl]-2,5-dihydro-1H-pyrrol-3-yl}-1-fluoro-3-hydroxynaphthalen-2-yl)-1λ^6,2,5-thiadiazolidine-1,1,3-trione] reads 8.00 to 9.00.

By pIC50 is commonly meant the negative decadic logarithm of the IC50, by convention in mol/L.
